Measurements taken from patent US8974823B2, “Solid compositions of low-solubility drugs and poloxamers” (Bend Research, Inc., priority 2003, dated 2015).
Converted amounts (≈) assume the structure as drawn.

What was measured:
[1] = aqueous solubility of the drug; conditions: aqueous solution
[2] = drugs of prior-art compositions, background section; cited from earlier work
[3] = in vivo test of oral powder for constitution in fasted male beagle dogs (plasma Drug 4); conditions: dog, oral gavage OPC
Protocol: The composition of Example 16 was used as oral powders for constitution (OPC) for evaluating the performance of the compositions in in vivo tests using male beagle dogs. The OPC was dosed as a suspension in a solution containing 0.5 wt % […] METHOCEL® (from Dow Chemical Co.), and was prepared as follows. First, 7.5 g of METHOCEL® was weighed out and added slowly to approximately 490 mL of water at 90-100° C. to form a METHOCEL® suspension. After all the METHOCELS® was added, 1000 mL of cool/room temperature water was added to the suspension, which was then placed in an ice water bath. When all of the METHOCEL® had dissolved, 2.55 g of polyoxyethylene 20 sorbitan monooleate (TWEEN 80) were added and the mixture stirred until the TWEEN 80 had dissolved, thus forming a stock suspension solution.
To form the OPC, sufficient quantity of the test composition to result in a 90 mgA amount of Drug 4 was weighed and placed into a mortar. (“mgA” refers to mg of active drug.) A 20 mL quantity of the stock suspension solution was added to the mortar and the test composition was mixed with a pestle. […]
Six male beagle dogs were each dosed with the OPC. […] Whole blood samples were taken from the jugular vein and analyzed for the concentration of Drug 4 using the following procedure. […]

SMILES: Cc1c(O)cccc1C(=O)N[C@@H](CSc1ccccc1)[C@H](O)CN1C[C@H]2CCCC[C@H]2C[C@H]1C(=O)NC(C)(C)C [Drug 3, N-(1,1-dimethylethyl) decahydro-2-[(2R,3R)-2-hydroxy-3-[(3-hydroxy-2-methylbenzoyl)amino]-4-(phenylthio)butyl]-3-isoquinolinecarboxamide (3s, 4aS, 8aS)-monomethanesulfonate]
- solubility [1]: ~6 µg/mL (≈ 10.6 µM)

SMILES: COc1ccccc1OCCNCC(O)COc1cccc2[nH]c3ccccc3c12 (stereo not shown) [carvedilol]
- glass transition temperature (Tg) [2]: about 39 °C

SMILES: CCOC(=O)N1c2ccc(C(F)(F)F)cc2[C@@H](N(Cc2cc(C(F)(F)F)cc(C(F)(F)F)c2)C(=O)OC)C[C@H]1CC [Control C7, Torcetrapib]
- Cmax ([3]; 90 mgA Drug 4): < 100 ng/mL
- AUC(0-t) ([3]; 90 mgA Drug 4, read-out: AUC(0–24)): < 200 ng·h/mL
